Measured values published in patent US9469831B2, “Lactobacillus plantarum cells with improved resistance to high concentrations of ethanol” (Chr. Hansen A/S, priority 2011, dated 2016).
≈ marks a conversion by molar mass, not a printed value.

Columns and labels:
[1] = test system: Lactobacillus plantarum CHCC14158; details: strain CHCC14158; GJ-5 medium with 11% ethanol, 3 days incubation at 25° C.
Description: (§1) Medium: The medium is the standard GJ-5 medium as used in Example 1 above.
(§2) A Lactobacillus plantarum cell that has an improved resistance towards ethanol as discussed herein—is herein defined as a Lactobacillus plantarum cell that can grow to an OD600 of at least 0.8 after 3 days incubation at 25° C. in the GJ-5 medium with 11% ethanol.

[2] = test system: Lactobacillus plantarum CHCC14254; details: strain CHCC14254; GJ-5 medium with 11% ethanol, 3 days incubation at 25° C.
Description: as §1, §2

[3] = test system: Lactobacillus plantarum CHCC14255; details: strain CHCC14255; GJ-5 medium with 11% ethanol, 3 days incubation at 25° C.
Description: as §1, §2

[4] = test system: Lactobacillus plantarum CHCC14158; assay: D-cycloserine resistance assay (OD600 growth in GJ-5 medium); assay type: cell-based; details: Lactiplantibacillus plantarum, strain CHCC14158, 24 hours growth at 18° C., vs 0 μg/ml D-cycloserine, read-out: amount of D-cycloserine that reduces the OD600 measured growth with 50%
Description: (§3) Medium: The medium is the known Grape Juice GJ-5 medium described in column 20, lines 10 to 20 of U.S. Pat. No. 7,112,346 (Chr. Hansen A/S).
(§4) As described in lines 10 to 20 of U.S. Pat. No. 7,112,346—the GJ-5 medium has the following composition: • Grape juice concentrate 70.0 g • Yeast paste 30.0 g • Tween 80 0.5 g • MnSO4H2O 0.1 g • Tap water 900.0 g
(§5) A Lactobacillus plantarum strain of interest is inoculated into 10 ml GJ-5 medium containing one of the following amounts of D-cycloserine: 0 μg/ml, 10 μg/ml, 20 μg/ml, 30 μg/ml, 50 μg/ml, 70 μg/ml, 100 μg/ml, 150 μg/ml or 200 μg/ml of D-cycloserine. The strain is grown 24 hours at 18° C. in the GJ-5 medium with the different concentrations of D-cycloserine.
(§6) After the 24 hours growth is OD600 measured for all samples.

[5] = test system: Lactobacillus plantarum CHCC14254; assay: as above; assay type: cell-based; details: Lactiplantibacillus plantarum, strain CHCC14254, 24 hours growth at 18° C., vs 0 μg/ml D-cycloserine, read-out: amount of D-cycloserine that reduces the OD600 measured growth with 50%
Description: as §3, §4, §5, §6

[6] = test system: Lactobacillus plantarum CHCC14255; assay: as above; assay type: cell-based; details: Lactiplantibacillus plantarum, strain CHCC14255, 24 hours growth at 18° C., vs 0 μg/ml D-cycloserine, read-out: amount of D-cycloserine that reduces the OD600 measured growth with 50%
Description: as §3, §4, §5, §6

## CCO [ethanol]
[1]
  OD600 reached by growth in presence of ethanol: around 0.65
[2]
  OD600 reached by growth in presence of ethanol: at least 0.8
[3]
  OD600 reached by growth in presence of ethanol: more than 1

## N[C@@H]1CON=C1O [D-cycloserine, D-4-amino-isoxazolidone]
[4]
  IC50: 60 to 65 µg/mL (≈ 588 to 637 µM)
[5]
  IC50: ~100 µg/mL (≈ 979 µM)
[6]
  IC50: ~100 µg/mL (≈ 979 µM)
